# Data: patent US5478856A, “Styrene derivatives and salts thereof” (Taiho Pharmaceutical Co., Ltd., priority 1992, dated 1995)
# How the values were obtained:
# 5-Lipoxygenase = target: T1, 5-Lipoxygenase (Cavia porcellus, UniProt A0A286X958); assay: 5-Lipoxygenase inhibiting activity (5-hydroxyeicosatetraenoic acid formation from 14C-arachidonic acid, cytosol fraction of polymorphonuclear leucocytes); format: biochemical; details: guinea pig polymorphonuclear leucocyte cytosol, 5-hydroxyeicosatetraenoic acid radioactivity
# T1 construct: the polymorphonuclear leucocytes were collected and the cytosol fraction was obtained as an enzyme source; endogenous in cells; host or cells: guinea pig peritoneal polymorphonuclear leucocytes (casein-elicited), cytosol fraction
# T1 sequence (A0A286X958 1-674): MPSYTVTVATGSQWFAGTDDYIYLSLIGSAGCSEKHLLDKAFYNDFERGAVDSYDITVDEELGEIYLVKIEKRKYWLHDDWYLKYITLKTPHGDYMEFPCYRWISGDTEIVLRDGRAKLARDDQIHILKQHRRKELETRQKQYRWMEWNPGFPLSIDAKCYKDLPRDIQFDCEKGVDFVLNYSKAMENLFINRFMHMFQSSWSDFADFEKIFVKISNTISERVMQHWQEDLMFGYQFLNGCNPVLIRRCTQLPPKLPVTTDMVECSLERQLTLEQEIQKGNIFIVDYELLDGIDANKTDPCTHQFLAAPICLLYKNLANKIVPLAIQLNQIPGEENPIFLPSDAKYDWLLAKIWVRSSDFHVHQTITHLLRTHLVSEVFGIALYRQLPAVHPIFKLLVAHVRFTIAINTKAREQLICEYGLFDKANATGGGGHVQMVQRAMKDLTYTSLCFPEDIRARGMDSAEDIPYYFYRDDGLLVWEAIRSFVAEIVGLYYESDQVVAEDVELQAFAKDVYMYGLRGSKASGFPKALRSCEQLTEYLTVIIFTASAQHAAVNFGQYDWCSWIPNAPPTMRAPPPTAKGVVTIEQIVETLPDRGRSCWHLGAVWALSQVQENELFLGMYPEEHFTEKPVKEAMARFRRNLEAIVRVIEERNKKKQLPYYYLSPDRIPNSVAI
# Experimental: (2) 5-Lipoxygenase inhibiting activity
# This assay was carried out by the method described in Kenkichi Ochi et al., J. Biol. Chem., 258, 5754-5758 (1983).
# Casein was injected into the abdominal cavity of a guinea pig, and the polymorphonuclear leucocytes were collected and the cytosol fraction was obtained as an enzyme source. ^14 C-arachidonic acid was reacted with the enzyme and the test drug at various concentrations over a predetermined period of time. The obtained 5-hydroxyeicosatetraenoic acid was separated by thin layer chromatography and the radioactivity was determined. The IC50 values were calculated by the comparison with the radioactivity of the control.
# Cyclooxygenase = Cyclooxygenase inhibiting effect (prostaglandin E2 formation from 14C-arachidonic acid, seminal vesicular gland microsomes); format: biochemical; details: seminal vasicular gland microsomes, prostaglandin E2 radioactivity
# Experimental: (1) Cyclooxygenase inhibiting effect
# This assay was carried out by the method described in Russell J. Taylor et al., Biochem. Pharmacol., 25, 2479-2484 (1976).
# ^14 C-arachidonic acid was reacted with seminal vasicular gland microsomes and the test drugs at various concentrations over a predetermined period of time and the obtained prostaglandin E2 was separated by thin layer chromatography. The radioactivity of prostaglandin E2 was determined by liquid scintillation counter. The IC50 values were calculated by the comparison with the radioactivity of the control.
SMILES,IC50 (5-Lipoxygenase) [nM],IC50 (Cyclooxygenase) [nM]
COCC(=Cc1cc(OC)c(O)c(OC)c1)C(=O)NCCc1onc(-c2ccc(OC)cc2)c1-c1ccc(OC)cc1 [Compound 3],300,1200
COc1ccc(-c2noc(CCNC(=O)C(=Cc3cc(OC)c(O)c(OC)c3)c3ccccn3)c2-c2ccc(OC)cc2)cc1 [Compound 6],620,1380
CCOC(=O)C(=Cc1cc(OC)c(O)c(OC)c1)C(=O)NCCc1onc(-c2ccc(OC)cc2)c1-c1ccc(OC)cc1 [Compound 1],1170,2870
COc1ccc(-c2noc(C(C#N)=Cc3cc(OC)c(O)c(OC)c3)c2-c2ccc(OC)cc2)cc1 [Compound 20],240,1850
COc1ccc(-c2noc(CCNC(=O)C(=Cc3cc(OC)c(O)c(OC)c3)C(=O)N(C)C)c2-c2ccc(OC)cc2)cc1 [Compound 8],260,4760
COc1ccc(-c2noc(CCNC(=O)C(C#N)=CC=Cc3cc(OC)c(O)c(OC)c3)c2-c2ccc(OC)cc2)cc1 [Compound 11],240,680
COc1ccc(-c2noc(CCNC(=O)C(C#N)=Cc3cc(OC)c(O)c(OC)c3)c2-c2ccc(OC)cc2)cc1 [Compound 2],650,4050

# Now those with a lower IC50 (5-Lipoxygenase), led by results:
IC50 (5-Lipoxygenase) [nM],IC50 (Cyclooxygenase) [nM],SMILES
180,110,COc1ccc(-c2noc(CCNC(=O)C(=Cc3cc(OC)c(O)c(OC)c3)NC(C)=O)c2-c2ccc(OC)cc2)cc1 [Compound 18]
180,950,CCCC(=Cc1cc(OC)c(O)c(OC)c1)C(=O)NCCc1onc(-c2ccc(OC)cc2)c1-c1ccc(OC)cc1 [Compound 4]
90,2940,COc1ccc(-c2noc(CCN(CC(=O)O)C(=O)C=CC=Cc3cc(OC)c(O)c(OC)c3)c2-c2ccc(OC)cc2)cc1 [Compound 23]
80,170,COc1ccc(-c2noc(CCNC(=O)C(=Cc3cc(OC)c(O)c(OC)c3)c3cccs3)c2-c2ccc(OC)cc2)cc1 [Compound 7]
